Among the data in ChEMBL document CHEMBL5523735 (J Med Chem, 2024) are IC50 and inhibition values, retold here.

One test addresses T1, P2Y purinoceptor 14 (Homo sapiens, UniProt Q15391).
T1 sequence (Q15391 whole entry): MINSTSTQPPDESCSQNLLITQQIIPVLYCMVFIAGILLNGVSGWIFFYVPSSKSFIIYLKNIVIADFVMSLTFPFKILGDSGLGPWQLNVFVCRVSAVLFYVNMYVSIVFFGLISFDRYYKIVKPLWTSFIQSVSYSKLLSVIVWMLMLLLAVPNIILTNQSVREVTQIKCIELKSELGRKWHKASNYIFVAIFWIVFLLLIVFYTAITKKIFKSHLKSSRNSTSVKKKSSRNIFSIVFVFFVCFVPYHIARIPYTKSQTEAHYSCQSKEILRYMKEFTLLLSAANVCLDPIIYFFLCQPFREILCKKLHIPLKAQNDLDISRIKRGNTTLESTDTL
Briefly: Antagonist activity at P2Y14R (unknown origin) stably expressed in HEK293 cells assessed as inhibition of forskolin-induced cAMP production by cAMP-Glo assay.
Conditions: not given
The class given is functional, cell-based. (In general: Cyclic AMP is a second messenger, typically raised through Gs and lowered through Gi signalling.)
A word on the IC50: it is the concentration that inhibits the measured activity by half. Turning to `Cc1ccc(Oc2sc(C(=O)O)cc2NC(=O)c2cnc(C)cn2)cn1`, the IC50 was determined as 1060 nM.
Still for that read-out and setting: in the case of `O=C(CCCNC(=S)Nc1ccc2c(c1)C(=O)OC21c2ccc(O)cc2Oc2cc(O)ccc21)NCCCC(=O)N1CCC(c2ccc(-c3cc(C(=O)O)cc4cc(-c5ccc(C(F)(F)F)cc5)ccc34)cc2)CC1` it was 1.52 nM.

For another test, the target named is T2, P2Y purinoceptor 14 (Homo sapiens) (UniProt Q15391).
T2 sequence (whole entry): T1 sequence (Q15391 whole entry)
The note with it: HEK293, dose 100.0 nM.
Description: Antagonist activity at P2Y14R (unknown origin) stably expressed in HEK293 cells assessed as inhibition of forskolin-induced cAMP production at 100 nM by cAMP-Glo assay relative to control
One may read the inhibition as the relative decrease from the control value, in per cent. Read a low inhibition as a response near the control. In turn, `Cc1ccc(Oc2sc(C(=O)O)cc2NC(=O)c2ccc(C#N)cc2)cn1` gave an inhibition of 33%.
The same measure, in the same setting: with `Cc1ccc(C(=O)Nc2cc(C(=O)O)sc2Oc2ccc(OC(F)(F)F)cc2)cc1` the figure was 32.7%.
Same read-out and setting: in the case of `Cc1ccc(Oc2sc(C(=O)O)cc2NC(=O)c2ccc(C(C)(C)C)cc2)cn1` it was 12.2%; in that of `CC(=O)c1ccc(Oc2sc(C(=O)O)cc2NC(=O)c2ccc(C)cc2)cc1`, 34.5%; in that of `Cc1ccc(C(=O)Nc2cc(C(=O)O)sc2Oc2ccc(C#N)cc2)cc1`, 16.2%.
The same measure, in the same setting: with `Cc1ccc(Oc2sc(C(=O)O)cc2NC(=O)c2ccc(C(F)(F)F)cc2)cn1` the figure was 39.7%; with `Cc1ccc(Oc2sc(C(=O)O)cc2NC(=O)c2ccc(C)nc2)cn1`, 30.3%.
`Cc1ccc(C(=O)Nc2cc(C(=O)O)sc2Oc2ccc(Cl)cc2)cc1` returned an inhibition of 39.9%.
On the same count and under the same terms, in the case of `Cc1ccc(Oc2sc(C(=O)O)cc2NC(=O)c2ccc(Cl)cc2)cn1` it was 21%.
Same read-out and setting: with `Cc1ccc(C(=O)Nc2cc(C(=O)O)sc2Oc2cccc(Cl)c2)cc1` the figure was 36.2%.

The test is the same for the next values; noted with them: HEK293, filed as antagonist, dose 100.0 nM.
As for `Cc1ccc(Oc2sc(C(=O)O)cc2NC(=O)c2cnc(C)cn2)cn1`, the inhibition came to 71%.
The same measure, in the same setting: in the case of `Cc1ccc(Oc2sc(C(=O)O)cc2NC(=O)c2ccc(N(C)C)cc2)cn1` it was 40.8%; in that of `Cc1ccc(Oc2sc(C(=O)O)cc2NC(=O)c2ccc(F)cc2)cn1`, 46.6%; in that of `Cc1ccc(C(=O)Nc2cc(C(=O)O)sc2Oc2cccc(C)c2)cc1`, 55.8%.
The compound `Cc1ccc(C(=O)Nc2cc(C(=O)O)sc2Oc2ccccc2C(F)(F)F)cc1` yielded an inhibition of 57.1%.
On the same count and under the same terms, with `Cc1ccc(C(=O)Nc2cc(C(=O)O)sc2Oc2ccc(C)nc2)nc1` the figure was 60.1%; with `Cc1ccc(C(=O)Nc2cc(C(=O)O)sc2Oc2ccc(S(C)(=O)=O)cc2)cc1`, 62.8%.
The same measure, in the same setting: with `Cc1ccc(C(=O)Nc2cc(C(=O)O)sc2Oc2ccc(C(F)(F)F)cc2)cc1` the figure was 62.6%.
As to `COc1cccc(Oc2sc(C(=O)O)cc2NC(=O)c2ccc(C)cc2)c1`, the inhibition is 63.2%.
The compound `Cc1ccc(Oc2sc(C(=O)O)cc2NC(=O)c2ccc(C(C)C)cc2)cn1` showed an inhibition of 44.3%.
In turn, `Cc1ccc(C(=O)Nc2cc(C(=O)O)sc2Oc2ccccc2Cl)cc1` gave an inhibition of 40.4%.
Same read-out and setting: with `Cc1ccc(C(=O)Nc2cc(C(=O)O)sc2Oc2cccc(C(F)(F)F)c2)cc1` the figure was 52.8%; with `Cc1ccc(C(=O)Nc2cc(C(=O)O)sc2Oc2ccccc2C)cc1`, 45.8%; with `COc1ccccc1Oc1sc(C(=O)O)cc1NC(=O)c1ccc(C)cc1`, 48.1%.
Still for that read-out and setting: with `Cc1ccc(C(=O)Nc2cc(C(=O)O)sc2Oc2ccc(C(C)(C)C)cc2)cc1` the figure was 54.4%.
On the same count and under the same terms, with `Cc1ccc(C(=O)Nc2cc(C(=O)O)sc2Oc2ccccc2)cc1` the figure was 42.3%; with `Cc1ccc(C(=O)Nc2cc(C(=O)O)sc2Oc2ccsn2)cc1`, 60.3%.
The compound `Cc1ccc(Oc2sc(C(=O)O)cc2NC(=O)c2cnn(C)c2)cn1` registered an inhibition of 42.8%.
In turn, `CCCc1ccc(C(=O)Nc2cc(C(=O)O)sc2Oc2ccc(C)nc2)cc1` gave an inhibition of 44.3%.
The same measure, in the same setting: in the case of `Cc1ccc(Nc2sc(C(=O)O)cc2NC(=O)c2ccc(C)cc2)cc1` it was 41.7%; in that of `CCc1ccc(C(=O)Nc2cc(C(=O)O)sc2Oc2ccc(C)nc2)cc1`, 59.8%; in that of `Cc1ccc(C(=O)Nc2cc(C(=O)O)sc2Oc2ccncc2)cc1`, 43.5%.
Same read-out and setting: in the case of `Cc1ccc(C(=O)Nc2cc(C(=O)O)sc2Oc2cccnc2)cc1` it was 62%; in that of `Cc1ccc(C(=O)Nc2cc(C(=O)O)sc2Oc2ccc(C(C)C)cc2)cc1`, 54.3%; in that of `Cc1ccc(C(=O)Nc2cc(C(=O)O)sc2Oc2ccc(C(=O)O)cc2)cc1`, 44.1%.
